The test has as its target T1, hOX2R (Homo sapiens, UniProt O43614).
T1 construct: expressed in transfected cells; host or cells: CHO cells (G418 selection)
T1 sequence (O43614 1-444): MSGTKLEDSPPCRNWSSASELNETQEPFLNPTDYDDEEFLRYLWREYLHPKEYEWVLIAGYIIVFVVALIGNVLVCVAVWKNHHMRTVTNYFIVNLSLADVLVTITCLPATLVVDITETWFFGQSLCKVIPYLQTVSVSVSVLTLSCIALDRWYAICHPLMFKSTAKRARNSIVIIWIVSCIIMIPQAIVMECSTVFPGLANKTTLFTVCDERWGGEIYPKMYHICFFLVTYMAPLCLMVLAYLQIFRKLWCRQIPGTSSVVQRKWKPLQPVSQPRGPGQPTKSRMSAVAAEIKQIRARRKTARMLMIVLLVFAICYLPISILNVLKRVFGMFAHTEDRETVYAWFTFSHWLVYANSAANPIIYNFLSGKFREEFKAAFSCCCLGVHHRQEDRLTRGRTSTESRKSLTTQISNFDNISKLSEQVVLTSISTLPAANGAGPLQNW
Nature of the test: hOX2R IPone assay (orexin receptor agonism). It is filed as cell-based. To be noted: IPone readout; for hOX2R_Ipone max %act: maximal activation; for EC50: orexin receptor agonist, read-out: hOX2R_IPone EC50.

On to `CCN1C(=O)NCCOCCOc2nc(cn3ccnc23)-c2cccc(c2)[C@H]1C` [Example 2, (12R)-13-ethyl-12-methyl-12,13,16,17,19,20-hexahydro-6,22-(azeno)-11,7-(metheno)imidazo[1,2-o][1,18,4,6,15]dioxatriaza-cycloicosin-14(15H)-one], for which the hOX2R_Ipone max %act turned out to be 64.8% and the EC50 (as a rule, the concentration needed to bring the measured effect to its halfway point) amounted to 813 nM.

On to `CCN1C(=O)NCCN(C(C)C)CCOc2nc(cn3ccnc23)-c2cccc(c2)[C@H]1C` [Example 3, (12R)-13-ethyl-12-methyl-18-(propan-2-yl)-12,13,15,16,17,18,19,20-octahydro-14H-6,22-(azeno)-11,7-(metheno)imidazo[1,2-r][1,4,7,9,18]oxatetraaza-cycloicosin-14-one], for which the hOX2R_Ipone max %act was 88.8% and the EC50 amounted to 2500 nM.

As to `CCN1C(=O)NCCCOCCOc2nc(cn3ccnc23)-c2cc(ncc2OC)[C@H]1C` [Example 7, (12R)-13-ethyl-8-methoxy-12-methyl-12,13,15,16,17,18,20,21-octahydro-14H-6,23-(azeno)-11,7-(metheno)imidazo[2,1-f][1,4,7,13,16,18]dioxatetra-azacyclohenicosin-14-one], the hOX2R_Ipone max %act is listed as 100.6% and the EC50 stood at 4.6 nM.

In the case of `CCN1C(=O)NCCOCCCOc2nc(cn3ccnc23)-c2cc(ncc2OC)[C@H]1C` [Example 8, (12R)-13-ethyl-8-methoxy-12-methyl-12,13,16,17,20,21-hexahydro-19H-6,23-(azeno)-11,7-(metheno)imidazo[1,2-o][1,18,4,6,9,15]dioxatetra-azacyclohenicosin-14(15H)-one], the hOX2R_Ipone max %act is reported as 100.2% and the concentration giving a half-maximal response (EC50) was determined as 13.6 nM.

On to `CCN1C(=O)NCCNCCCOc2cn3ccnc3c(n2)-c2cccc(c2)[C@H]1C` [Example 10, (R,E)-4-ethyl-3-methyl-13-oxa-4,6,9-triaza-1(6,8)-imidazo[1,2-a]pyrazina-2(1,3)-benzenacyclotridecaphan-5-one], for which the hOX2R_Ipone max %act amounted to 97.61% and the EC50 was 950 nM.

For the compound `CCN1C(=O)NCCCNCCOc2nc(cn3ccnc23)-c2cccc(c2)[C@H]1C` [Example 11], the hOX2R_Ipone max %act is recorded as 75.54% and the EC50 worked out at 778 nM.

For the compound `CCN1C(=O)NCCCCCCOc2nc(cn3ccnc23)-c2cccc(c2)[C@H]1C` [Example 12, (12R)-13-ethyl-12-methyl-12,13,16,17,18,19, 20,21-octahydro-6,23-(azeno)-11,7-(metheno) imidazo[2,1-c][1,4,13,15]oxa-triazacyclohenicosin-14(15H)-one], the hOX2R_Ipone max %act was found to be 99.76% and the EC50 is 20.3 nM.

For the compound `CCN1C(=O)NCCCC(C)(C)COc2nc(cn3ccnc23)-c2cccc(c2)[C@H]1C` [Example 13, (12R)-13-ethyl-12,19,19-tri-methyl-12,13,15, 16,17,18,19,20-octahydro-14H-6,22-(azeno)-11,7-(metheno) imidazo[2,1-c][1,4,13,15]oxa-triazacycloicosin-14-one], the hOX2R_Ipone max %act came to 98.2% and the EC50 was 634 nM.

Consider `CCN1C(=O)NCCCOCCOc2nc(cn3ccnc23)-c2cccc(c2)[C@H]1C` [Example 14, (12R)-13-ethyl-12-methyl-12,13,15,16,17,18, 20,21-octahydro-14H-6,23-(azeno)-11,7-(metheno)imidazo [2,1-f][1,4,7,16, 18]dioxatriaza-cyclohenicosin-14-one], for which the hOX2R_Ipone max %act amounted to 101% and the EC50 came to 9.7 nM.

In the case of `CCN1CCCOc2nc(cn3ccnc23)-c2cccc(c2)[C@@H](C)N(CC)C(=O)NCC1` [Example 15, (12R)-13,18-diethyl-12-methyl-12,13,16, 17,18,19,20,21-octahydro-6,23-(azeno)-11,7-(metheno) imidazo[2,1-c][1,4,13,15,18]oxa-tetraazacyclo-henicosin-14(15H)-one], the hOX2R_Ipone max %act is 96.2% and the EC50 is 1180 nM.

As to `CCN1C(=O)NCCOCCCOc2nc(cn3ccnc23)-c2cccc(c2)[C@H]1C` [Example 17, (12R)-13-ethyl-12-methyl-12,13, 16,17,20,21-hexahydro-19H-6,23-(azeno)-11,7-(metheno) imidazo[1,2-o][1, 18,4,6,15]dioxa-triazacyclohenicosin-14(15H)-one], the hOX2R_Ipone max %act worked out at 99.6% and the EC50 stood at 19.4 nM.

`CCN1C(=O)NCc2nc(cs2)CCOc2nc(cn3ccnc23)-c2cccc(c2)[C@H]1C` [Example 22, (R,27E,6^2Z)-10-ethyl-11-methyl-3-oxa-8,10-diaza-6(4,2)-thiazola-2(6,8)-imidazo[1,2-a]pyrazina-1(1,3)-benzenacycloundecaphan-9-one]: the hOX2R_Ipone max %act is on record as 94.8% and the 50% effective concentration (EC50) was found to be 82.6 nM.

On to `CCN1C(=O)NCc2nc(no2)CCOc2nc(cn3ccnc23)-c2cccc(c2)[C@H]1C` [Example 23, (R,27E,64Z)-10-ethyl-11-methyl-3-oxa-8,10-diaza-6(3,5)-oxadiazola-2(6,8)-imidazo[1,2-a]pyrazina-1(1,3)-benzenacyclo-undecaphan-9-one], for which the hOX2R_Ipone max %act came to 64.2% and the EC50 was 1010 nM.

For `CCN1C(=O)NCCc2nc(no2)COc2nc(cn3ccnc23)-c2cccc(c2)[C@H]1C` [Example 24, (R,27E,54Z)-10-ethyl-11-methyl-3-oxa-8,10-diaza-5(3,5)-oxadiazola-2(6,8)-imidazo[1,2-a]pyrazina-1(1,3)-benzenacyclo-undecaphan-9-one], the hOX2R_Ipone max %act was found to be 61.5% and the concentration for a half-maximal effect (EC50) is 814 nM.

For the compound `CCN1C(=O)NCC(C(F)(F)F)N(C)CCCOc2nc(cn3ccnc23)-c2cccc(c2)C1C` [Example 26A, (3R,E)-4-ethyl-3,9-dimethyl-8-(trifluoromethyl)-13-oxa-4,6,9-triaza-1(6,8)-imidazo[1,2-a]pyrazina-2(1,3)-benzenacyclotridecaphan-5-one], the hOX2R_Ipone max %act amounted to 99.4% and the EC50 came out at 13.9 nM.

As to `CCN1C(=O)NCC(C(F)(F)F)N(C)CCCOc2nc(cn3ccnc23)-c2cccc(c2)C1C` [Example 26B, (3R,E)-4-ethyl-3,9-dimethyl-8-(trifluoromethyl)-13-oxa-4,6,9-triaza-1(6,8)-imidazo[1,2-a]pyrazina-2(1,3)-benzenacyclotridecaphan-5-one], the hOX2R_Ipone max %act turned out to be 98.8% and the EC50 was found to be 12 nM.

On to `CCN1C(=O)N[C@@H](CCC(F)(F)F)CCCCOc2nc(cn3ccnc23)-c2cc(cnc2OC)[C@H]1C` [Example 27, (3R,7R,E)-4-ethyl-22-methoxy-3-methyl-7-(3,3,3-trifluoropropyl)-12-oxa-4,6-diaza-1(6,8)-imidazo[1,2-a]pyrazina-2(3,5)-pyridinacyclododecaphan-5-one], for which the hOX2R_Ipone max %act turned out to be 101.1% and the EC50 came out at 1.4 nM.

Regarding `CCN1C(=O)N[C@@H](CCC(F)(F)F)CCCCCOc2nc(cn3ccnc23)-c2cc(cnc2OC)[C@H]1C` [Example 28, (3R,7R,E)-4-ethyl-22-methoxy-3-methyl-7-(3,3,3-trifluoropropyl)-13-oxa-4,6-diaza-1(6,8)-imidazo[1,2-a]pyrazina-2(3,5)-pyridinacyclotridecaphan-5-one], the hOX2R_Ipone max %act was determined as 102.2% and the EC50 is 0.9 nM.

As to `CCN1C(=O)N[C@@H](CCC(F)(F)F)CCCCOc2nc(cn3ccnc23)-c2ccnc(c2)[C@@H]1C` [Example 29A, (12S,16R)-13-ethyl-12-methyl-16-(3,3,3-tri-fluoropropyl)-12,13,15,16,17, 18,19,20-octahydro-14H-6,22-(azeno)-11,7-(metheno) imidazo[2,1-c][1,4,10,13,15] oxatetraazacyclo-icosin-14-one], the hOX2R_Ipone max %act is on record as 99.5% and the EC50 stood at 42.9 nM.

As to `CCN1C(=O)N[C@@H](CCC(F)(F)F)CCCCOc2nc(cn3ccnc23)-c2ccnc(c2)[C@H]1C` [Example 29B, (12R,16R)-13-ethyl-12-methyl-16-(3,3,3-trifluoropropyl)-12,13,15,16,17, 18,19,20-octahydro-14H-6,22-(azeno)-11,7-(metheno) imidazo[2,1-c][1,4,10,13,15] oxatetraazacyclo-icosin-14-one], the hOX2R_Ipone max %act stood at 99.7% and the EC50 was found to be 4.5 nM.

As to `CCN1C(=O)N[C@@H](CCC(F)(F)F)CCCCCOc2nc(cn3ccnc23)-c2ccnc(c2)[C@@H]1C` [Example 30, (12S,16R)-13-ethyl-12-methyl-16-(3,3,3-trifluoropropyl)-12,13,16,17,18, 19,20,21-octa-hydro-6,23-(azeno)-11,7-(metheno)imidazo [2,1-c][1,4,10, 13,15]oxatetra-azacyclohenicosin-14(15H)-one], the hOX2R_Ipone max %act amounted to 98.5% and the EC50 was 51.1 nM.

With `CCN1C(=O)N[C@@H](CCC(F)(F)F)C/C=C\COc2nc(cn3ccnc23)-c2cccc(c2)[C@H]1C` [Example 31, (1^7E,3R,7S,9Z)-4-ethyl-3-methyl-7-(3,3,3-trifluoropropyl)-12-oxa-4,6-diaza-1(6,8)-imidazo[1,2-a]pyrazina-2(1,3)-benzenacyclododecaphan-9-en-5-one], the hOX2R_Ipone max %act was 100.5% and the EC50 was 8 nM.

Turning to `CCN1C(=O)N[C@@H](CCC(F)(F)F)CCCCOc2nc(cn3ccnc23)-c2cccc(c2)[C@H]1C` [Example 32, (3R,7R,E)-4-ethyl-3-methyl-7-(3,3,3-trifluoropropyl)-12-oxa-4,6-diaza-1(6,8)-imidazo[1,2-a]pyrazina-2(1,3)-benzenacyclododecaphan-5-one], the hOX2R_Ipone max %act was 101% and the EC50 amounted to 2.8 nM.

Values taken from patent publication US12686690B2, “Macrocyclic urea orexin receptor agonists” (Merck Sharp & Dohme LLC, priority 2020, dated 2026).
